From patent publication US8937078B2, “Quinazolinones as prolyl hydroxylase inhibitors” (Janssen Pharmaceutica NV, priority 2009, dated 2015)

What was measured:
[1] = molecular target: T1, human PHD2 (PHD2181-417) (Homo sapiens, UniProt Q9GZT9); assay: PHD enzymatic assay ([14C]-succinic acid production); assay type: biochemical; conditions: PHD2181-417, HIF-1α peptide 10 μM, average of results; for IC50: read-out: Enzyme pIC50 (converted)
T1 construct: Smt (SUMO) tag (cleaved yes); made in house; host or cells: E. coli BL21 (pBAD vector)
T1 sequence (Q9GZT9 181-417): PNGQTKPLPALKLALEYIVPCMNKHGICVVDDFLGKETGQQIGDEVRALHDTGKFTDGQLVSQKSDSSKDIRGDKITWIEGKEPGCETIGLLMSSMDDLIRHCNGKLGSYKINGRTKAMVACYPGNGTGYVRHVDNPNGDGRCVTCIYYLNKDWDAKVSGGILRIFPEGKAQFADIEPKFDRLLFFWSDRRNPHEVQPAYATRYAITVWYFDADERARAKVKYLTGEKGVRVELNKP
In short: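 Activity measured as [14C]-succinic acid formed from [5-14C]-2-oxoglutarate over 10 minutes, with peptide substrate at 10 μM, in Tris-HCl pH 7.5 buffer containing catalase, DTT and ascorbate. Unreacted oxoglutarate removed by DNP derivatisation; supernatant beta-counted.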

[2] = tested on: Hep-3B cells; assay: Cellular assay: erythropoietin secretion in Hep-3B cells; assay type: cell-based, human; conditions: Homo sapiens, Hep3B, 100 μM compound, 24 hours, percent of EPO secretion relative to assay control compound 7-[(4-Chloro-phenyl)-(5-methyl-isoxazol-3-ylamino)-methyl]-quinolin-8-ol, read-out: Cellular % EPO Stimulation
In short: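 Hep-3B cells in DMEM with 10% FBS, treated 24 h after plating with compounds at 100 μM final for a further 24 h. Secreted EPO in supernatant measured by MSD electrochemiluminescence sandwich immunoassay with anti-EPO detection antibody.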

IC50 [1] | Enzyme pIC50 [1] | SMILES | Emax at 100 µM [2]
50.1 nM |  | Cc1ccc2c(=O)[nH]c(-n3cc(C(=O)O)cn3)nc2c1 [Example 10, 1-(7-Methyl-4-oxo-3,4-dihydro-quinazolin-2-yl)-1H-pyrazole-4-carboxylic acid] | 32%
25.1 nM |  | Cc1cc2nc(-n3cc(C(=O)O)cn3)[nH]c(=O)c2cc1Oc1ccccc1 [Example 59, 1-(7-Methyl-4-oxo-6-phenoxy-3,4-dihydro-quinazolin-2-yl)-1H-pyrazole-4-carboxylic acid] | 80%
39.8 nM |  | O=C(O)c1cnn(-c2nc3ccc(-c4cccc(F)c4)cc3c(=O)[nH]2)c1 [Example 196, 1-[6-(3-Fluoro-phenyl)-4-oxo-3,4-dihydro-quinazolin-2-yl]-1H-pyrazole-4-carboxylic acid] | 92%
20 nM |  | Cc1ccc(Oc2cc3c(=O)[nH]c(-n4cc(C(=O)O)cn4)nc3cc2C)cc1C [Example 92, 1-[6-(3,4-dimethyl-phenoxy)-7-methyl-4-oxo-3,4-dihydro-quinazolin-2-yl]-1H-pyrazole-4-carboxylic acid] | 137%
158 nM |  | O=C(O)c1cnn(-c2nc3c(Oc4ccccc4)cccc3c(=O)[nH]2)c1 [Example 112, 1-(4-Oxo-8-phenoxy-3,4-dihydro-quinazolin-2-yl)-1H-pyrazole-4-carboxylic acid] | 18%
25.1 nM |  | O=C(O)c1cnn(-c2nc3ccc(-c4cccc(OC(F)(F)F)c4)cc3c(=O)[nH]2)c1 [Example 205, 1-[4-Oxo-6-(3-trifluoromethoxy-phenyl)-3,4-dihydro-quinazolin-2-yl]-1H-pyrazole-4-carboxylic acid] | 58%
15.8 nM |  | COc1ccc(S(=O)(=O)c2cc3c(=O)[nH]c(-n4cc(C(=O)O)cn4)nc3cc2Cl)cc1OC [Example 71, 1-[7-Chloro-6-(3,4-dimethoxy-benzenesulfonyl)-4-oxo-3,4-dihydro-quinazolin-2-yl]-1H-pyrazole-4-carboxylic acid] | 16%
31.6 nM |  | Cc1cccc(C)c1C(=O)Nc1ccc2nc(-n3cc(C(=O)O)cn3)[nH]c(=O)c2c1 [Example 166, 1-[6-(2,6-Dimethyl-benzoylamino)-4-oxo-3,4-dihydro-quinazolin-2-yl]-1H-pyrazole-4-carboxylic acid] | 11%
316 nM |  | COc1cc2nc(-n3cc(C(=O)O)cn3)[nH]c(=O)c2c(OC)c1OC [Example 18, 1-(5,6,7-Trimethoxy-4-oxo-3,4-dihydro-quinazolin-2-yl)-1H-pyrazole-4-carboxylic acid] | 42%
31.6 nM |  | O=C(O)c1cnn(-c2nc3cc(Cl)c(Oc4ccc(Cl)cc4)cc3c(=O)[nH]2)c1 [Example 48, 1-[7-Chloro-6-(4-chloro-phenoxy)-4-oxo-3,4-dihydro-quinazolin-2-yl]-1H-pyrazole-4-carboxylic acid] | 51%
50.1 nM |  | CN(C)c1ccc2nc(-n3cc(C(=O)O)cn3)[nH]c(=O)c2c1 [Example 125, 1-(6-Dimethylamino-4-oxo-3,4-dihydro-quinazolin-2-yl)-1H-pyrazole-4-carboxylic acid] | 19%
25.1 nM |  | O=C(O)c1cnn(-c2nc3ccc(-c4ccc5cc[nH]c5c4)cc3c(=O)[nH]2)c1 [Example 108, 1-[6-(1H-Indol-6-yl)-4-oxo-3,4-dihydro-quinazolin-2-yl]-1H-pyrazole-4-carboxylic acid] | 85%
 | 8.1 | Cc1ccccc1-c1ccc2nc(-n3cc(C(=O)O)cn3)[nH]c(=O)c2c1 [Example 69, 1-(4-Oxo-6-o-tolyl-3,4-dihydro-quinazolin-2-yl)-1H-pyrazole-4-carboxylic acid] | 57%
31.6 nM |  | CC(C)Oc1ccc2nc(-n3cc(C(=O)O)cn3)[nH]c(=O)c2c1 [Example 104, 1-(6-isopropoxy-4-oxo-3,4-dihydro-quinazolin-2-yl)-1H-pyrazole-4-carboxylic acid] | 75%
20 nM |  | COc1cccc(Oc2ccc3nc(-n4cc(C(=O)O)cn4)[nH]c(=O)c3c2)c1 [Example 31, 1-[6-(3-Methoxy-phenoxy)-4-oxo-3,4-dihydro-quinazolin-2-yl]-1H-pyrazole-4-carboxylic acid] | 129%
25.1 nM |  | CC(C)(C)c1ccc(Sc2cc3c(=O)nc(-n4cc(C(=O)O)cn4)[nH]c3cc2Cl)cc1 [Example 24, 1-[6-(4-tert-Butyl-phenylsulfanyl)-7-chloro-4-oxo-1,4-dihydro-quinazolin-2-yl]-1H-pyrazole-4-carboxylic acid] | 50%
15.8 nM |  | O=C(O)c1cnn(-c2nc3ccc(-c4ccccc4OC(F)(F)F)cc3c(=O)[nH]2)c1 [Example 202, 1-[4-Oxo-6-(2-trifluoromethoxy-phenyl)-3,4-dihydro-quinazolin-2-yl]-1H-pyrazole-4-carboxylic acid] | 29%

IC50 [1] | Enzyme pIC50 [1] | SMILES | Emax at 100 µM [2]
31.6 nM |  | O=C(O)c1cnn(-c2nc3ccc(-c4ccccc4Cl)cc3c(=O)[nH]2)c1 [Example 192, 1-[6-(2-Chloro-phenyl)-4-oxo-3,4-dihydro-quinazolin-2-yl]-1H-pyrazole-4-carboxylic acid] | 87%
39.8 nM |  | O=C(O)c1cnn(-c2nc3cc(Sc4ccccc4)ccc3c(=O)[nH]2)c1 [Example 78, 1-(4-Oxo-7-phenylsulfanyl-3,4-dihydro-quinazolin-2-yl)-1H-pyrazole-4-carboxylic acid] | 5%
20 nM |  | COc1ccccc1-c1ccc2nc(-n3cc(C(=O)O)cn3)[nH]c(=O)c2c1 [Example 198, 1-[6-(2-Methoxy-phenyl)-4-oxo-3,4-dihydro-quinazolin-2-yl]-1H-pyrazole-4-carboxylic acid] | 178%
158 nM |  | O=C(O)c1cnn(-c2nc3cc(C(F)(F)F)ccc3c(=O)[nH]2)c1 [Example 2, 1-(7-Trifluoromethyl-4-oxo-3,4-dihydro-quinazolin-2-yl)-1H-pyrazole-4-carboxylic acid] | 21%
25.1 nM |  | Cc1ccccc1Oc1ccc2nc(-n3cc(C(=O)O)cn3)[nH]c(=O)c2c1 [Example 37, 1-(4-Oxo-6-o-tolyloxy-3,4-dihydro-quinazolin-2-yl)-1H-pyrazole-4-carboxylic acid] | 78%
63.1 nM |  | O=C(O)c1cnn(-c2nc3cc(-c4ccc(Cl)cc4)ccc3c(=O)[nH]2)c1 [Example 187, 1-[7-(4-Chloro-phenyl)-4-oxo-3,4-dihydro-quinazolin-2-yl]-1H-pyrazole-4-carboxylic acid] | 24%
63.1 nM |  | O=C(O)c1cnn(-c2nc3cc(S(=O)(=O)c4ccc(Cl)cc4)ccc3c(=O)[nH]2)c1 [Example 82, 1-[7-(4-Chloro-benzenesulfonyl)-4-oxo-3,4-dihydro-quinazolin-2-yl]-1H-pyrazole-4-carboxylic acid] | 15%
251 nM |  | O=C(O)c1cnn(-c2nc3c4c(ccc3c(=O)[nH]2)CCCC4)c1 [Example 142, 1-(4-Oxo-3,4,7,8,9,10-hexahydro-benzo[h]quinazolin-2-yl)-1H-pyrazole-4-carboxylic acid] | 23%
20 nM |  | Cc1ccccc1CNc1ccc2nc(-n3cc(C(=O)O)cn3)[nH]c(=O)c2c1 [Example 173, 1-[6-(2-Methyl-benzylamino)-4-oxo-3,4-dihydro-quinazolin-2-yl]-1H-pyrazole-4-carboxylic acid] | 101%
25.1 nM |  | COc1cccc(C2CCCN(c3cc4c(=O)[nH]c(-n5cc(C(=O)O)cn5)nc4cc3Cl)C2)c1 (racemic) [Example 86, (rac)-1-{7-Chloro-6-[3-(3-methoxy-phenyl)-piperidin-1-yl]-4-oxo-3,4-dihydro-quinazolin-2-yl}-1H-pyrazole-4-carboxylic acid] | 71%
20 nM |  | O=C(O)c1cnn(-c2nc3cc(Cl)c(-c4ccccc4)cc3c(=O)[nH]2)c1 [Example 68, 1-(7-Chloro-4-oxo-6-phenyl-3,4-dihydro-quinazolin-2-yl)-1H-pyrazole-4-carboxylic acid] | 59%
31.6 nM |  | O=C(Nc1ccccc1)Nc1ccc2nc(-n3cc(C(=O)O)cn3)[nH]c(=O)c2c1 [Example 168, 1-[4-Oxo-6-(3-phenyl-ureido)-3,4-dihydro-quinazolin-2-yl]-1H-pyrazole-4-carboxylic acid] | 4%
251 nM |  | CC(C)c1cccc2c(=O)[nH]c(-n3cc(C(=O)O)cn3)nc12 [Example 114, 1-(8-Isopropyl-4-oxo-3,4-dihydro-quinazolin-2-yl)-1H-pyrazole-4-carboxylic acid] | 16%
50.1 nM |  | O=C(O)c1cnn(-c2nc3cc(Cl)ccc3c(=O)[nH]2)c1 [Example 1, 1-(7-Chloro-4-oxo-3,4-dihydro-quinazolin-2-yl)-1H-pyrazole-4-carboxylic acid] | 37%
31.6 nM |  | Cc1ccc(Oc2ccc3nc(-n4cc(C(=O)O)cn4)[nH]c(=O)c3c2)cc1 [Example 47, 1-(4-Oxo-6-p-tolyloxy-3,4-dihydro-quinazolin-2-yl)-1H-pyrazole-4-carboxylic acid] | 95%
31.6 nM |  | O=C(O)c1cnn(-c2nc3ccc(COc4ccccc4)cc3c(=O)[nH]2)c1 [Example 74, 1-(4-Oxo-6-phenoxymethyl-3,4-dihydro-quinazolin-2-yl)-1H-pyrazole-4-carboxylic acid] | 35%
